Reference: ChEMBL document CHEMBL3885881, “DrugMatrix”

Species on record: Rattus norvegicus
Test: DrugMatrix - Regimen: Daily Repeat
Assay type: toxicity, organism-based, Sprague-Dawley
Design: regimen Daily Repeat, gender Male, age 6-8 weeks
Conditions: in vivo, po, […], route oral GAVAGE, vehicle 100 % WATER; for ALANINE AMINOTRANSFERASE / ALBUMIN / ALKALINE PHOSPHATASE / ASPARTATE AMINOTRANSFERASE / BLOOD UREA NITROGEN / CARBON DIOXIDE / CHLORIDE / CHOLESTEROL / CREATINE PHOSPHOKINASE / CREATININE / GLUCOSE / LACTATE DEHYDROGENASE / LIPASE / PHOSPHORUS / POTASSIUM / SODIUM / TOTAL BILIRUBIN / TOTAL PROTEIN / URIC ACID: tissue Plasma; for ABSOLUTE BASOPHIL / ABSOLUTE EOSINOPHIL / ABSOLUTE LYMPHOCYTE / ABSOLUTE MONOCYTE / ABSOLUTE SEGMENTED NEUTROPHIL / BASOPHIL / EOSINOPHIL / ERYTHROCYTE COUNT / HEMATOCRIT / HEMOGLOBIN / LEUKOCYTE COUNT / LYMPHOCYTE / MEAN CORPUSCULAR HEMOGLOBIN / MEAN CORPUSCULAR HEMOGLOBIN CONCENTRATION / MEAN CORPUSCULAR VOLUME / MONOCYTE / NEUTROPHIL / NUCLEATED RED BLOOD CELLS / PLATELET COUNT: tissue Blood
[1] = 72 h, dose 0.025 mg/Kg, dose level Low, time 3 day
[2] = 72 h, dose 0.25 mg/Kg, dose level High, time 3 day
[3] = 120 h, dose 0.025 mg/Kg, dose level Low, time 5 day
[4] = 120 h, dose 0.25 mg/Kg, dose level High, time 5 day

## C[C@@H]1C[C@@H]([C@H](O)CC2CC(=O)NC(=O)C2)C(=O)[C@@H](C)C1 [CYCLOHEXIMIDE]
[1]
  ALANINE AMINOTRANSFERASE: 59.67 u/L
  ALBUMIN: 4.1 G/DL
  ALKALINE PHOSPHATASE: 369.67 u/L
  ASPARTATE AMINOTRANSFERASE: 107.33 u/L
  BLOOD UREA NITROGEN: 15.67 mg/dL
  CARBON DIOXIDE: 31 mmol/L
  CHLORIDE: 102 MEQ/L
  CHOLESTEROL: 69 mg/dL
  CREATINE PHOSPHOKINASE: 1055 u/L
  CREATININE: 0.22 mg/dL
  GLUCOSE: 164 mg/dL
  LACTATE DEHYDROGENASE: 240.33 u/L
  LIPASE: 9 u/L
  PHOSPHORUS: 12.27 mg/dL
  POTASSIUM: 6.52 MEQ/L
  SODIUM: 142.17 MEQ/L
  TOTAL BILIRUBIN: 0.23 mg/dL
  TOTAL PROTEIN: 5.63 G/DL
  URIC ACID: 1.8 mg/dL
[2]
  ALANINE AMINOTRANSFERASE: 45 u/L
  ALBUMIN: 3.43 G/DL
  ALKALINE PHOSPHATASE: 376.67 u/L
  ASPARTATE AMINOTRANSFERASE: 77 u/L
  BLOOD UREA NITROGEN: 14.33 mg/dL
  CARBON DIOXIDE: 34.33 mmol/L
  CHLORIDE: 101.33 MEQ/L
  CHOLESTEROL: 48.67 mg/dL
  CREATINE PHOSPHOKINASE: 345.33 u/L
  CREATININE: 0.17 mg/dL
  GLUCOSE: 154.33 mg/dL
  LACTATE DEHYDROGENASE: 99 u/L
  LIPASE: 8 u/L
  PHOSPHORUS: 12.1 mg/dL
  POTASSIUM: 7.04 MEQ/L
  SODIUM: 141.27 MEQ/L
  TOTAL BILIRUBIN: 0.23 mg/dL
  TOTAL PROTEIN: 4.67 G/DL
  URIC ACID: 1.33 mg/dL
[3]
  ABSOLUTE BASOPHIL: 0 CELLS/uL
  ABSOLUTE EOSINOPHIL: 0 CELLS/uL
  ABSOLUTE LYMPHOCYTE: 7936.67 CELLS/uL
  ABSOLUTE MONOCYTE: 68.67 CELLS/uL
  ABSOLUTE SEGMENTED NEUTROPHIL: 628 CELLS/uL
  BASOPHIL: 0%
  EOSINOPHIL: 0%
  ERYTHROCYTE COUNT: 5.73 x10E6/uL
  HEMATOCRIT: 34.33%
  HEMOGLOBIN: 13.1 G/DL
  LEUKOCYTE COUNT: 8.63 x10E3/uL
  LYMPHOCYTE: 91.67%
  MEAN CORPUSCULAR HEMOGLOBIN: 22.9 pg
  MEAN CORPUSCULAR HEMOGLOBIN CONCENTRATION: 38.13 G/DL
  MEAN CORPUSCULAR VOLUME: 60.1 fL
  MONOCYTE: 1%
  NEUTROPHIL: 7.33%
  NUCLEATED RED BLOOD CELLS: 0 /100WBC
  PLATELET COUNT: 1317.33 x10E3/uL
  ALANINE AMINOTRANSFERASE: 45.33 u/L
  ALBUMIN: 4.03 G/DL
  ALKALINE PHOSPHATASE: 343 u/L
  ASPARTATE AMINOTRANSFERASE: 78 u/L
  BLOOD UREA NITROGEN: 15.33 mg/dL
  CARBON DIOXIDE: 33.33 mmol/L
  CHLORIDE: 102.33 MEQ/L
  CHOLESTEROL: 68.67 mg/dL
  CREATINE PHOSPHOKINASE: 249.67 u/L
  CREATININE: 0.16 mg/dL
  GLUCOSE: 141 mg/dL
  LACTATE DEHYDROGENASE: 124.33 u/L
  LIPASE: 9 u/L
  PHOSPHORUS: 11.4 mg/dL
  POTASSIUM: 5.87 MEQ/L
  SODIUM: 146.43 MEQ/L
  TOTAL BILIRUBIN: 0.1 mg/dL
  TOTAL PROTEIN: 5.83 G/DL
  URIC ACID: 0.73 mg/dL
[4]
  ABSOLUTE BASOPHIL: 0 CELLS/uL
  ABSOLUTE EOSINOPHIL: 26.67 CELLS/uL
  ABSOLUTE LYMPHOCYTE: 7410 CELLS/uL
  ABSOLUTE MONOCYTE: 139.67 CELLS/uL
  ABSOLUTE SEGMENTED NEUTROPHIL: 1057 CELLS/uL
  BASOPHIL: 0%
  EOSINOPHIL: 0.33%
  ERYTHROCYTE COUNT: 5.35 x10E6/uL
  HEMATOCRIT: 32.87%
  HEMOGLOBIN: 12.77 G/DL
  LEUKOCYTE COUNT: 8.63 x10E3/uL
  LYMPHOCYTE: 85%
  MEAN CORPUSCULAR HEMOGLOBIN: 23.83 pg
  MEAN CORPUSCULAR HEMOGLOBIN CONCENTRATION: 38.8 G/DL
  MEAN CORPUSCULAR VOLUME: 61.47 fL
  MONOCYTE: 1.67%
  NEUTROPHIL: 13%
  NUCLEATED RED BLOOD CELLS: 0 /100WBC
  PLATELET COUNT: 1213 x10E3/uL
  ALANINE AMINOTRANSFERASE: 54.67 u/L
  ALBUMIN: 3.6 G/DL
  ALKALINE PHOSPHATASE: 291.33 u/L
  ASPARTATE AMINOTRANSFERASE: 78 u/L
  BLOOD UREA NITROGEN: 16 mg/dL
  CARBON DIOXIDE: 35.33 mmol/L
  CHLORIDE: 101.5 MEQ/L
  CHOLESTEROL: 65 mg/dL
  CREATINE PHOSPHOKINASE: 253.67 u/L
  CREATININE: 0.15 mg/dL
  GLUCOSE: 135 mg/dL
  LACTATE DEHYDROGENASE: 109 u/L
  LIPASE: 9 u/L
  PHOSPHORUS: 11.9 mg/dL
  POTASSIUM: 6.52 MEQ/L
  SODIUM: 143.55 MEQ/L
  TOTAL BILIRUBIN: 0.1 mg/dL
  TOTAL PROTEIN: 5.03 G/DL
  URIC ACID: 0.73 mg/dL
